Assays:
Format in all cases: in vivo
corn (Zea mays) = test: Test A pre-/postemergence plant response
In short: (§1)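 Visually rated 0–100 injury (100 = complete control) versus untreated plants, ~10 days in greenhouse. Application pre- (soil spray, loam/sand) and postemergence (2–10 cm, 1–2 leaf stage), same timepoint.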

[1] = tested on: giant foxtail (Setaria faberii); test: Test A pre-/postemergence plant response
In short: as §1

[2] = tested on: large crabgrass (Digitaria sanguinalis); test: Test A pre-/postemergence plant response
In short: as §1

[3] = tested on: morningglory (Ipomoea spp.); test: Test A pre-/postemergence plant response
In short: as §1

[4] = tested on: velvetleaf (Abutilon theophrasti); test: Test A pre-/postemergence plant response
In short: as §1

[5] = tested on: wheat (Triticum aestivum); test: Test A pre-/postemergence plant response
In short: as §1

[6] = tested on: galium (catchweed bedstraw, Galium aparine); test: Test B pre-/postemergence plant response; details: Preemergence; for Galium plant response rating: 125 g ai/ha
In short: (§2)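 Pre-em in loam/sand; post-em at 1–4 leaf (2–18 cm) in peat mix. Solvent + surfactant formulation. Greenhouse 13–15 d; visual % control vs untreated, 0–100.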

[7] = tested on: nightshade (eastern black nightshade, Solanum ptycanthum); test: Test B pre-/postemergence plant response; details: Preemergence; for Nightshade plant response rating: 125 g ai/ha
In short: as §2

[8] = tested on: sunflower (common oilseed sunflower, Helianthus annuus); test: Test B pre-/postemergence plant response; details: Preemergence; for Sunflower plant response rating: 125 g ai/ha
In short: as §2

[9] = tested on: canarygrass (Phalaris minor); test: Test B postemergence plant response; details: Postemergence; for Canarygrass plant response rating: 250 g ai/ha, scale 0 to 100
In short: (§3)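 Visual ratings from 0 (no effect) to 100 (complete control), made against controls 13–15 days after treatment, kept in a greenhouse. Compounds were applied postemergence to potted plants at the 1- to 4-leaf stage (2–18 cm).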

[10] = tested on: chickweed (Stellaria media); test: Test B postemergence plant response; details: Postemergence; for Chickweed plant response rating: 250 g ai/ha, scale 0 to 100
In short: as §3

[11] = tested on: windgrass (Apera spica-venti); test: Test B postemergence plant response; details: Postemergence; for Windgrass plant response rating: 250 g ai/ha, scale 0 to 100
In short: as §3

[12] = tested on: winter barley (Hordeum vulgare); test: Test B postemergence plant response; details: Postemergence; for Barley plant response rating: 250 g ai/ha, scale 0 to 100
In short: as §3

[13] = tested on: goosegrass (Eleusine indica); test: Test B pre-/postemergence plant response; details: Preemergence, 62 g ai/ha; scale 0 to 100, 0 no effect, 100 complete control
[14] = Postemergence, 125 g ai/ha, visual injury, 0 to 100 scale (0 no effect, 100 complete control), approx. ten days
[15] = Postemergence, 500 g ai/ha, 0 to 100 scale, 0 = no effect, 100 = complete control, approx. ten days
[16] = Preemergence, 125 g ai/ha, 0 to 100 scale, 0 = no effect, 100 = complete control
[17] = Preemergence, 500 g ai/ha, visual injury, 0 to 100 scale (0 no effect, 100 complete control), approx. ten days
[18] = 31 g ai/ha, scale 0 to 100 (0 no effect, 100 complete control)
[19] = 62 g ai/ha, scale 0 to 100, 0 no effect, 100 complete control
[20] = 62 g ai/ha, scale 0 (no effect) to 100 (complete control), 13 to 15 days
[21] = 125 g ai/ha, visual rating after 13 to 15 days, scale 0 (no effect) to 100 (complete control)
[22] = 125 g ai/ha, scale 0 to 100 (0 no effect, 100 complete control), 13 to 15 days

## 5-[(2-hydroxy-6-oxo-1-cyclohexen-1-yl)carbonyl]-3-(2-methoxyethyl)-2-(3-thienyl)-4(3H)-pyrimidinone [Compound 97]
Corn (Zea mays); [14]
  Corn plant response rating: 30
Corn (Zea mays); [15]
  Plant response rating, Corn: 90
Corn (Zea mays); [16]
  Plant response rating, Corn: 0
Corn (Zea mays); [17]
  Plant response rating, Corn: 0
[1]; [14]
  Foxtail, Giant plant response rating: 90
[1]; [15]
  Plant response rating, Foxtail, Giant: 100
[1]; [16]
  Plant response rating, Foxtail, Giant: 70
[1]; [17]
  Plant response rating, Foxtail, Giant: 100
[2]; [14]
  Crabgrass, Large plant response rating: 90
[2]; [15]
  Plant response rating, Crabgrass, Large: 100
[2]; [16]
  Plant response rating, Crabgrass, Large: 90
[2]; [17]
  Plant response rating, Crabgrass, Large: 100
[3]; [14]
  Morningglory plant response rating: 100
[3]; [15]
  Plant response rating, Morningglory: 100
[3]; [16]
  Plant response rating, Morningglory: 10
[3]; [17]
  Plant response rating, Morningglory: 90
[4]; [14]
  Velvetleaf plant response rating: 100
[4]; [15]
  Plant response rating, Velvetleaf: 100
[4]; [16]
  Plant response rating, Velvetleaf: 90
[4]; [17]
  Plant response rating, Velvetleaf: 100
[5]; [14]
  Wheat plant response rating: 40
[5]; [15]
  Plant response rating, Wheat: 60
[5]; [16]
  Plant response rating, Wheat: 0
[5]; [17]
  Plant response rating, Wheat: 50
[6]; 250 g ai/ha, 0 to 100 scale
  Plant response rating, Galium: 85
[6]; [18]
  Plant response rating, Galium: 0
[6]; [19]
  Plant response rating, Galium: 10
[6]; 0 to 100 scale
  Galium plant response rating: 85
[7]; 250 g ai/ha, 0 to 100 scale
  Plant response rating, Nightshade: 100
[7]; [18]
  Plant response rating, Nightshade: 100
[7]; [19]
  Plant response rating, Nightshade: 100
[7]; 0 to 100 scale
  Nightshade plant response rating: 100
[8]; 250 g ai/ha, 0 to 100 scale
  Plant response rating, Sunflower: 98
[8]; [18]
  Plant response rating, Sunflower: 0
[8]; [19]
  Plant response rating, Sunflower: 80
[8]; 0 to 100 scale
  Sunflower plant response rating: 95
[9]; [18]
  Plant response rating, Canarygrass: 0
[9]; [20]
  Plant response rating, Canarygrass: 0
[9]; [21]
  Plant response rating, Canarygrass: 5
[9]
  Canarygrass plant response rating: 40
[10]; [18]
  Plant response rating, Chickweed: 90
[10]; [20]
  Plant response rating, Chickweed: 95
[10]; [21]
  Plant response rating, Chickweed: 95
[10]
  Chickweed plant response rating: 98
[11]; [18]
  Plant response rating, Windgrass: 5
[11]; [20]
  Plant response rating, Windgrass: 10
[11]; [21]
  Plant response rating, Windgrass: 30
[11]
  Windgrass plant response rating: 40
[12]; [18]
  Plant response rating, Barley: 0
[12]; [20]
  Plant response rating, Barley: 0
[12]; [22]
  Plant response rating, Barley: 0
[12]
  Barley plant response rating: 5
[13]
  Plant response rating, Goosegrass: 75

## O=C1CCCC(O)=C1C(=O)c1cnc(-c2ccccc2)n(-c2ccc(F)cc2)c1=O [Compound 24]
Corn (Zea mays); [14]
  Corn plant response rating: 0
Corn (Zea mays); [15]
  Plant response rating, Corn: 30
Corn (Zea mays); [16]
  Plant response rating, Corn: 0
Corn (Zea mays); [17]
  Plant response rating, Corn: 0
[1]; [14]
  Foxtail, Giant plant response rating: 70
[1]; [15]
  Plant response rating, Foxtail, Giant: 90
[1]; [16]
  Plant response rating, Foxtail, Giant: 40
[1]; [17]
  Plant response rating, Foxtail, Giant: 100
[2]; [14]
  Crabgrass, Large plant response rating: 70
[2]; [15]
  Plant response rating, Crabgrass, Large: 90
[2]; [16]
  Plant response rating, Crabgrass, Large: 30
[2]; [17]
  Plant response rating, Crabgrass, Large: 100
[3]; [14]
  Morningglory plant response rating: 70
[3]; [15]
  Plant response rating, Morningglory: 100
[3]; [16]
  Plant response rating, Morningglory: 20
[3]; [17]
  Plant response rating, Morningglory: 80
[4]; [14]
  Velvetleaf plant response rating: 100
[4]; [15]
  Plant response rating, Velvetleaf: 100
[4]; [16]
  Plant response rating, Velvetleaf: 90
[4]; [17]
  Plant response rating, Velvetleaf: 100
[5]; [14]
  Wheat plant response rating: 0
[5]; [15]
  Plant response rating, Wheat: 30
[5]; [16]
  Plant response rating, Wheat: 0
[5]; [17]
  Plant response rating, Wheat: 20
[6]; 250 g ai/ha, 0 to 100 scale
  Plant response rating, Galium: 80
[6]; [18]
  Plant response rating, Galium: 0
[6]; [19]
  Plant response rating, Galium: 0
[6]; 0 to 100 scale
  Galium plant response rating: 10
[7]; 250 g ai/ha, 0 to 100 scale
  Plant response rating, Nightshade: 100
[7]; [18]
  Plant response rating, Nightshade: 90
[7]; [19]
  Plant response rating, Nightshade: 98
[7]; 0 to 100 scale
  Nightshade plant response rating: 100
[8]; 250 g ai/ha, 0 to 100 scale
  Plant response rating, Sunflower: 98
[8]; [18]
  Plant response rating, Sunflower: 85
[8]; [19]
  Plant response rating, Sunflower: 90
[8]; 0 to 100 scale
  Sunflower plant response rating: 95
[9]; [18]
  Plant response rating, Canarygrass: 40
[9]; [20]
  Plant response rating, Canarygrass: 40
[9]
  Canarygrass plant response rating: 60
[10]; [18]
  Plant response rating, Chickweed: 80
[10]; [20]
  Plant response rating, Chickweed: 90
[10]; [21]
  Plant response rating, Chickweed: 95
[10]
  Chickweed plant response rating: 100
[11]; [18]
  Plant response rating, Windgrass: 20
[11]; [20]
  Plant response rating, Windgrass: 30
[11]; [21]
  Plant response rating, Windgrass: 60
[11]
  Windgrass plant response rating: 80
[12]; [18]
  Plant response rating, Barley: 0
[12]; [20]
  Plant response rating, Barley: 5
[12]; [22]
  Plant response rating, Barley: 50
[12]
  Barley plant response rating: 70
[13]
  Plant response rating, Goosegrass: 98

— US8952024B2, “Herbicidal pyrimidone derivatives” (E I du Pont de Nemours and Company, priority 2009, dated 2015)
